Assays:
Assay in all cases: fluorogenic activity assay
Type in all cases: biochemical
activeCASP10 = target: T1, activeCASP10 (Homo sapiens, UniProt Q92851); conditions: 333 nM enzyme; 1 h pre-incubation; PBS with 333 mM citrate
T1 sequence (Q92851 220-415): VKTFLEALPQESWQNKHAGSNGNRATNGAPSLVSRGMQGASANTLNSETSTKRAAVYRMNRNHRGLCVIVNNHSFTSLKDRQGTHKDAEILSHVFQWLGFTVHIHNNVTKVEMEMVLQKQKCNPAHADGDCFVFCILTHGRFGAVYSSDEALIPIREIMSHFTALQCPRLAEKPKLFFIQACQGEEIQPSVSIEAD
T1 sequence (Q92851 416-521): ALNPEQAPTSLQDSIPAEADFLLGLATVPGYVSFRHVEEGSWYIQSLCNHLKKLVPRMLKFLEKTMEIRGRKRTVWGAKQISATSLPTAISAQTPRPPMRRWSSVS

active caspase-8 = active caspase-8 (Homo sapiens, UniProt Q14790); conditions: 1 h pre-incubation; PBS
activeCASP-3 = target: T2, activeCASP-3 (Homo sapiens, UniProt P42574); conditions: 0.3 μM enzyme; 1 h pre-incubation; PBS
T2 sequence (P42574 29-175): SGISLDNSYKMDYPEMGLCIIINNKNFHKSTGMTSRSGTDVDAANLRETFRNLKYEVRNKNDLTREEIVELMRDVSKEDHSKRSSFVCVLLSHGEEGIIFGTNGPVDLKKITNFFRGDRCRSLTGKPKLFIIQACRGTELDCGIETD
T2 sequence (P42574 176-277): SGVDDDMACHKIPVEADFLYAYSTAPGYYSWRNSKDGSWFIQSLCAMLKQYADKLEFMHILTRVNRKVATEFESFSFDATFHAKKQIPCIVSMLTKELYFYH

Chain of active caspase-8 (Q14790 217-374): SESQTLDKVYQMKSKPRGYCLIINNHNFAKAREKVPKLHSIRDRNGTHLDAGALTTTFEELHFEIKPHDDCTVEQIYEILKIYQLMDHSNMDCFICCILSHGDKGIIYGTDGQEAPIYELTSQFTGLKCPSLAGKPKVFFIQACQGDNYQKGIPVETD
Chain of active caspase-8 (Q14790 385-479): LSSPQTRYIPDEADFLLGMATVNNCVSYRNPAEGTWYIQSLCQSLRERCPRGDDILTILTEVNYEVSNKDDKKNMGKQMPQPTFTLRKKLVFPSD

In the case of `NS(=O)(=O)C#Cc1ccccc1` [PFTμ, pifithrin-μ], the Relative activity (activeCASP10) is reported as “we found that PFTμ inhibited both proteoforms to some degree”, the Relative activity (active caspase-8) is reported as “PFTμ also significantly inhibited active caspase-3 and active caspase-8” and the Relative activity (activeCASP-3) is reported as “PFTμ also significantly inhibited active caspase-3 and active caspase-8”.

— article PMC11854450 (RSC Chemical Biology, 2025)
